# Source: US20260365670A1, “EGFR INHIBITORS AND USES THEREOF” (DIZAL (JIANGSU) PHARMACEUTICAL CO., LTD., priority 2022, published 2026)
# Read-outs that look alike come from different tables or passages of the source.
# What was measured:
# [1] = tested on: PC-9; experiment: Cell proliferation assay, PC-9 cells (CellTiter-Glo, 72 hours); assay type: cell-based; details: PC9 cells
# Description: (§1) Biological Example 2: Cell Proliferation Assays
# (§2) Ba/F3 cells expressing EGFR mutations were seeded in 384-well plates at 5000 cells/well in RPMI1640 medium containing […]. PC-9 at 500 cells/well was seeded into 384-well plates in RPMI1640 medium with 10% FBS. After overnight incubation, the assay plates were dosed with compounds at a series of concentrations. Alongside dosing the assay plates, the day 0 plate was processed using CellTiter-Glo® Luminescent Cell Viability Assay (Promega) to measure the number of viable cells (G0). The assay plates were further incubated for 72 hours and the number of viable cells (G3) was measured. The percentage of proliferation was calculated as: […]=100×(G3 value of sample well−G0 value)/(G3 value of DMSO control−G0 value). The concentration of compound producing 50% proliferation inhibition (GI50) was further calculated in best-fit curves using XLFit software. N/A=not available.
# [2] = tested on: Ba/F3 cells expressing EGFR mutations; experiment: Cell proliferation assay, Ba/F3 cells expressing EGFR mutations (CellTiter-Glo, 72 hours); assay type: cell-based
# Description: as §1, §2
# [3] = target: T1, EGFR[T790M/C797S/d746-750] (Homo sapiens, UniProt P00533, C797S/DEL746-750/T790M); experiment: Inhibition of EGFR[T790M/C797S/d746-750] biochemical enzymatic activity (HTRF); details: EGFR[T790M/C797S/d746-750], 1 mM ATP, 1 h at room temperature, read-out: IC50 @T790M - C797S - Del19
# T1 construct: purchased Carna Bio
# Description: (§3) Biological Example 1: Inhibition of EGFR WT and Mutant Biochemical Enzymatic Activity
# (§4) The inhibition potency of compounds against these enzymes was assessed using Homogenous Time Resolved Fluorescence approach (HTRF, CisBio. Cat No. 62TKOPEJ).
# (§5) Inhibitory effects of the compounds were determined by measuring the enzymatic activity of EGFR enzyme phosphorylates 1 μM TK Substrate-biotin in the presence of 1 mM adenosine-5′-triphosphate (ATP) and varying concentrations of the test compound. The enzyme reaction buffer contains 5 mM MgCl2, 1 mM MnC12, 0.01% CHAPS, 1 mM dithiothreitol (DTT), 0.5% dimethylsulfoxide (DMSO), and 1× supplemented enzymatic buffer. The WT and mutant EGFR enzymes (SignalChem) were added to plates containing inhibitors, followed by activation of the kinase reaction by addition of ATP and peptide substrates. After incubation for 1 h at room temperature, the reaction was stopped by the addition of the detection reagent mix containing EDTA. The fluorescence was measured at 615 nm and 665 nm, respectively with excitation wavelength at 320 nm. The calculated signal ratio of 665 nm/615 nm is proportional to the kinase activity. The concentration of compound producing 50% inhibition of the respective kinase (IC50) was calculated using four-parameter logistic fit with XL-FIT.
# [4] = target: T2, EGFR Exon19Del/T790M (Homo sapiens, UniProt P00533, DEL746-750/T790M); experiment: Inhibition of EGFR Exon19Del/T790M biochemical enzymatic activity (HTRF); details: EGFR Exon19Del/T790M, 1 mM ATP, 1 h at room temperature, read-out: IC50 @Del19-T790M
# T2 construct: purchased Carna Bio
# Description: as §3, §4, §5
# [5] = target: T3, EGFR (C797S L858R) (Homo sapiens, UniProt P00533, C797S/L858R); experiment: Inhibition of EGFR (C797S L858R) biochemical enzymatic activity (HTRF); details: EGFR (C797S L858R), 1 mM ATP, 1 h at room temperature, read-out: IC50 @L858-C797S
# T3 construct: purchased signalchem
# Description: as §3, §4, §5
# [6] = target: T4, EGFR (d746-750 C797S) (Homo sapiens, UniProt P00533, C797S/DEL746-750); experiment: Inhibition of EGFR (d746-750 C797S) biochemical enzymatic activity (HTRF); details: EGFR (d746-750 C797S), 1 mM ATP, 1 h at room temperature, read-out: IC50 @Del19-C797S
# T4 construct: purchased signalchem
# Description: as §3, §4, §5
# [7] = target: T5, EGFR L858R/T790M (Homo sapiens, UniProt P00533, L858R/T790M); experiment: Inhibition of EGFR L858R/T790M biochemical enzymatic activity (HTRF); details: EGFR L858R/T790M, 1 mM ATP, 1 h at room temperature, read-out: IC50 @L858R-T790M
# T5 construct: purchased Carna Bio
# Description: as §3, §4, §5
# [8] = target: T6, EGFR[T790M/C797S/L858R] (Homo sapiens, UniProt P00533, C797S/L858R/T790M); experiment: Inhibition of EGFR[T790M/C797S/L858R] biochemical enzymatic activity (HTRF); details: EGFR[T790M/C797S/L858R], 1 mM ATP, 1 h at room temperature, read-out: IC50 @T790M- C797S - L858R
# T6 construct: purchased Carna Bio
# Description: as §3, §4, §5
# [9] = target: T7, EGFR Exon19Del (Homo sapiens, UniProt P00533, DEL746-750); experiment: Inhibition of EGFR Exon19Del biochemical enzymatic activity (HTRF); details: EGFR Exon19Del, 1 mM ATP, 1 h at room temperature, read-out: IC50 @Del19
# T7 construct: purchased Carna Bio
# Description: as §3, §4, §5
# [10] = target: T8, EGFR L858R (Homo sapiens, UniProt P00533, L858R); experiment: Inhibition of EGFR L858R biochemical enzymatic activity (HTRF); details: 1 mM ATP, 1 h at room temperature, read-out: IC50 @L858R
# T8 construct: purchased Carna Bio
# Description: as §3, §4, §5
# [11] = CellTiter-Glo, read-out: PC9 GI50
# [12] = BaF3 cells, EGFR DEL19-C797S, CellTiter-Glo, read-out: DEL19-C797S/BaF3 GI50
# [13] = BaF3 cells, EGFR DEL19-T790-C797S, CellTiter-Glo, read-out: DEL19-T790-C797S/BaF3 GI50
# [14] = BaF3 cells, EGFR L858R, CellTiter-Glo, read-out: L858R/BaF3 GI50
# [15] = BaF3 cells, EGFR L858R-C797S, CellTiter-Glo, read-out: L858R-C797S/BaF3 GI50
# [16] = BaF3 cells, EGFR L858R-T790-C797S, CellTiter-Glo, read-out: L858R-T790-C797S/BaF3 GI50
# [17] = BaF3 cells, EGFR L858R-T790M, CellTiter-Glo, read-out: L858R-T790M/BaF3 GI50
# [18] = EGFR DEL19-T790M, CellTiter-Glo, read-out: DEL19-T790M GI50
# T1 sequence (P00533 with tags, fused parts or gaps DEL746-750/T790M/C797S limits assumed): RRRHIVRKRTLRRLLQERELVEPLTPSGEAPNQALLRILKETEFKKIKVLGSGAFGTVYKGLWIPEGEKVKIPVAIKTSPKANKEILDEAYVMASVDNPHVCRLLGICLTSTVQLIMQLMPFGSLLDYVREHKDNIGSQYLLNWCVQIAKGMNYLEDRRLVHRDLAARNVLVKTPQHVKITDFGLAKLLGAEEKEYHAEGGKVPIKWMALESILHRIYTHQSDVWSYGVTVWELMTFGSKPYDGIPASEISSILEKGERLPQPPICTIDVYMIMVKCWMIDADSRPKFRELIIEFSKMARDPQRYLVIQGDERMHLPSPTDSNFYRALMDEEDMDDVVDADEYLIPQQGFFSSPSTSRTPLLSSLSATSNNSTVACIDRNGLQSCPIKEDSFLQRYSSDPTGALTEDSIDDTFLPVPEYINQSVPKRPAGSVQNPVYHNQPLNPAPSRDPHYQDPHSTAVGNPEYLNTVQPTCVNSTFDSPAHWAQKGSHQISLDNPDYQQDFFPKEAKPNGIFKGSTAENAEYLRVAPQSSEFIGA
# T3 sequence (P00533 25-1210 C797S/L858R): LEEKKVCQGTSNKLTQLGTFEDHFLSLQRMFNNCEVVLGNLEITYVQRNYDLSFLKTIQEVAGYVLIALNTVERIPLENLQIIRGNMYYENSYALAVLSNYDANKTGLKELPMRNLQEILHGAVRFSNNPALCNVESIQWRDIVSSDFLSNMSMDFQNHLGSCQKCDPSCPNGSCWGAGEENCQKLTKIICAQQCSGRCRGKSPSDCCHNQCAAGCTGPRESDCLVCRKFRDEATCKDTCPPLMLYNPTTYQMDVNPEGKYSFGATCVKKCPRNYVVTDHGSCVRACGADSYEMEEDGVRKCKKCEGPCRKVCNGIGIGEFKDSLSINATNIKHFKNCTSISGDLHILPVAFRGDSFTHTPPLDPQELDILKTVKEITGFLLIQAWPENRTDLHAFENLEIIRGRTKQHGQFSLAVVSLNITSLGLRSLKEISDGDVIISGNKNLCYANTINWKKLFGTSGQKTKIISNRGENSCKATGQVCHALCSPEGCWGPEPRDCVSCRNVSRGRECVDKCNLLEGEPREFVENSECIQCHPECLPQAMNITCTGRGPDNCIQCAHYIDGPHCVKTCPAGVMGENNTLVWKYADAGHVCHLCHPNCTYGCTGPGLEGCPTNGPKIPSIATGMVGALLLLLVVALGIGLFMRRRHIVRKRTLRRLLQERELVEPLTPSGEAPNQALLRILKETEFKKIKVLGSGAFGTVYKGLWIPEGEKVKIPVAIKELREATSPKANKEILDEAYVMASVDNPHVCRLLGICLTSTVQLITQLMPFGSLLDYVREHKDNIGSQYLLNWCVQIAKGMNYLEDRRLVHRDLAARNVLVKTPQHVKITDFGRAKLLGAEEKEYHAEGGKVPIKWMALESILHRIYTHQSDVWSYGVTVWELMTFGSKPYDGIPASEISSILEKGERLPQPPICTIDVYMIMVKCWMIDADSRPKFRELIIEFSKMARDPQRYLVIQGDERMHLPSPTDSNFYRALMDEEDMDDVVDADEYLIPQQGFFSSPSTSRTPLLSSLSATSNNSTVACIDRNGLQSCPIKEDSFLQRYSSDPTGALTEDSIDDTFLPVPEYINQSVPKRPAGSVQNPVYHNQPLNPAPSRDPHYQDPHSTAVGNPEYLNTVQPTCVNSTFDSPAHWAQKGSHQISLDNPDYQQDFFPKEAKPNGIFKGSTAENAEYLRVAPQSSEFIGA
# T6 sequence (P00533 25-1210 T790M/C797S/L858R): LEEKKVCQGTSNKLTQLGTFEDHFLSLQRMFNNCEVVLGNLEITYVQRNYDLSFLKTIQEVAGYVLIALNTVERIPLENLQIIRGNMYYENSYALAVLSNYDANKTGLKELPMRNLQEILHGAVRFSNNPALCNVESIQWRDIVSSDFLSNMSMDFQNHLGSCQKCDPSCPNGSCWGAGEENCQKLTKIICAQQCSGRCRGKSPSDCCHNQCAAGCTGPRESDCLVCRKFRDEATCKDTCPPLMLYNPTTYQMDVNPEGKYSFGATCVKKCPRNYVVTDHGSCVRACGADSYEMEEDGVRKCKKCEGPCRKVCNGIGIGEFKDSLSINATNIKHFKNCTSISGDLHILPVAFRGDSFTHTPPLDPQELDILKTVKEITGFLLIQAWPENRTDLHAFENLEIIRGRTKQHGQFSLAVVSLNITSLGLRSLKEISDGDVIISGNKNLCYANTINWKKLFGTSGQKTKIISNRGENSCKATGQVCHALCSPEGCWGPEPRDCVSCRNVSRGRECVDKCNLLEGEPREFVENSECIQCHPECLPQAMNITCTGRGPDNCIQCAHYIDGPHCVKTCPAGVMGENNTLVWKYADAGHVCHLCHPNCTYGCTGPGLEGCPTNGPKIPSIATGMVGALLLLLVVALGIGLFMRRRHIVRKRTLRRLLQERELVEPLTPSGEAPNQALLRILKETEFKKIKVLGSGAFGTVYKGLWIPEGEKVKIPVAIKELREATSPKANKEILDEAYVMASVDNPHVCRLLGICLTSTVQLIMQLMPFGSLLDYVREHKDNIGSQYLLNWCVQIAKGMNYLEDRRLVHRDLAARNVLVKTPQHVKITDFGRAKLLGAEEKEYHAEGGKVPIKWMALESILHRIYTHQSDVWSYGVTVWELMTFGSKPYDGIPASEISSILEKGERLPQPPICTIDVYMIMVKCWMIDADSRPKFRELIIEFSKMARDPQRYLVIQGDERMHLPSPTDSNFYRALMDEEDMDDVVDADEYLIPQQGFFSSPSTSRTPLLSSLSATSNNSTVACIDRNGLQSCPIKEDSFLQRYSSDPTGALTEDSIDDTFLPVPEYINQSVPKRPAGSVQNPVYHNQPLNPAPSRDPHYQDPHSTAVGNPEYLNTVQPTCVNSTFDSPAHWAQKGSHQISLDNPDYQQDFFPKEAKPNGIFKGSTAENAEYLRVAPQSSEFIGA
# T8 sequence (P00533 25-1210 L858R): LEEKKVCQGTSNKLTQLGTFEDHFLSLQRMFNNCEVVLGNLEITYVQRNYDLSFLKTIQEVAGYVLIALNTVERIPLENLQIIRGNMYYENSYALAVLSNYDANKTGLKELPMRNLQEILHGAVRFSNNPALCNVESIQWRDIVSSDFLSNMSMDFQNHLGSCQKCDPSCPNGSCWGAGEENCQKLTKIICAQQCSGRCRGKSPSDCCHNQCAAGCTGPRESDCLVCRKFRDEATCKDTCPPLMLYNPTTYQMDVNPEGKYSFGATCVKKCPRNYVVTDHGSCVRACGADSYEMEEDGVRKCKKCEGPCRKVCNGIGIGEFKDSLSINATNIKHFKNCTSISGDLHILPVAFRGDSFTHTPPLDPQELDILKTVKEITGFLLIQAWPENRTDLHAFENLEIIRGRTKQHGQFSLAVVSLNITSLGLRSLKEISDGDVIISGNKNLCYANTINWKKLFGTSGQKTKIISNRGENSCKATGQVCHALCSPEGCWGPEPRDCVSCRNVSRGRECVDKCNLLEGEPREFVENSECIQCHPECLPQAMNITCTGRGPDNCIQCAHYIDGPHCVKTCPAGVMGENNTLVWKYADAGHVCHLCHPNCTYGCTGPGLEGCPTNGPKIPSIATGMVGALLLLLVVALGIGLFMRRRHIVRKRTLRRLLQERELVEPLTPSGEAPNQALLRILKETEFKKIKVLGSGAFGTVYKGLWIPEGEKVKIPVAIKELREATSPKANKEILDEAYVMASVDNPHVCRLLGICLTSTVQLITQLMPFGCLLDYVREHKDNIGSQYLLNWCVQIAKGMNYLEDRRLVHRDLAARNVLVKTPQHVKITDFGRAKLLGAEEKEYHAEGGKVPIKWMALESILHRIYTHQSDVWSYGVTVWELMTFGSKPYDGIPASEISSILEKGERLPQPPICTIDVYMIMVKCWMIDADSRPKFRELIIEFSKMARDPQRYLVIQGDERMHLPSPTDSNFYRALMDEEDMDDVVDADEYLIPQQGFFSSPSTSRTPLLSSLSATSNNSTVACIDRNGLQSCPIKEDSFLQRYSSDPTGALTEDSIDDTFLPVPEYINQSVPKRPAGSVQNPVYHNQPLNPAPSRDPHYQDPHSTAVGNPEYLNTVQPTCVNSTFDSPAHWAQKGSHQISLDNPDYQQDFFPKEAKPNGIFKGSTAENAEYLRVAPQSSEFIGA
# T4 sequence (P00533 with tags, fused parts or gaps DEL746-750/C797S limits assumed): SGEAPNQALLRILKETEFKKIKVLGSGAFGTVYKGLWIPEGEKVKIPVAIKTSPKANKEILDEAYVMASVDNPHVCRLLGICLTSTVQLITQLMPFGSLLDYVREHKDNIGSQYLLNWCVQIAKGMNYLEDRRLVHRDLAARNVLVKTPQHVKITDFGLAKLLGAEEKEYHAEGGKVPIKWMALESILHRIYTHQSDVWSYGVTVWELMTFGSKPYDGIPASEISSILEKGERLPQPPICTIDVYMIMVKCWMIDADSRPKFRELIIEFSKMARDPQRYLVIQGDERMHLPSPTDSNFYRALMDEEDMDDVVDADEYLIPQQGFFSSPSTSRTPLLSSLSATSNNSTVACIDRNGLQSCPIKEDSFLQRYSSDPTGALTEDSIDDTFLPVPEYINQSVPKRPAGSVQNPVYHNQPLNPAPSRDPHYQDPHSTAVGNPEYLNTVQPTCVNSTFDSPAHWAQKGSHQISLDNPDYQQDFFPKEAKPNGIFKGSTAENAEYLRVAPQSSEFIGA
SMILES,"GI50 [1, 11]","GI50 [2, 12]","GI50 [2, 13]","GI50 [2, 14]","GI50 [2, 15]","GI50 [2, 16]","GI50 [2, 17]","GI50 [2, 18]",further results
"CN(C)[C@@H]1CCN(c2ccc3nc4n(c3c2)C23CCC(CN(CCOc5c(cnn5C)-c5cc(cn(C)c5=O)C(=O)N4)C2)C3)C1 (single isomer, unassigned) [Example A66C]",703 nM,156 nM,548 nM,1580 nM,688 nM,549 nM,1520 nM,723 nM,–
"CN(C)[C@H]1CCN(c2ccc3nc4n(c3c2)C23CCC(CN(CCOc5c(cnn5C)-c5cc(cn(C)c5=O)C(=O)N4)C2)C3)C1 (single isomer, unassigned) [Example A66A]",705 nM,177 nM,466 nM,1140 nM,709 nM,600 nM,2130 nM,622 nM,–
"C[C@@H]1CCCOc2c(cnn2C)-c2cc(cn(C3CC3)c2=O)C(=O)Nc2nc3ccc(N4CCN(C)CC4)cc3n2C1 [Example A15, (11R)-26-cyclopropyl-5,11-dimethyl-16-(4-methylpiperazin-1-yl)-7-oxa-4,5,13,20,22,26-hexaazapentacyclo[22.3.1.0^{2,6}.0^{13,21}.0^{14,19}]octacosa-1(28),2(6),3,14,16,18,20,24-octaene-23,27-dione]",–,–,–,–,–,–,–,–,"GI50 ([1]; Homo sapiens, PC-9, 72 h, CellTiter-Glo, read-out: PC9 GI50): 2070 nM; GI50 ([2]; Mus musculus, BaF3, 72 h, BaF3 cells, EGFR DEL19-C797S, CellTiter-Glo, read-out: DEL19-C797S/BaF3 GI50): 495 nM; GI50 ([2]; Mus musculus, BaF3, 72 h, BaF3 cells, EGFR DEL19-T790-C797S, CellTiter-Glo, read-out: DEL19-T790-C797S/BaF3 GI50): 2100 nM; GI50 ([2]; Mus musculus, BaF3, 72 h, BaF3 cells, EGFR L858R, CellTiter-Glo, read-out: L858R/BaF3 GI50): 1390 nM; GI50 ([2]; Mus musculus, BaF3, 72 h, BaF3 cells, EGFR L858R-C797S, CellTiter-Glo, read-out: L858R-C797S/BaF3 GI50): 1580 nM; GI50 ([2]; Mus musculus, BaF3, 72 h, BaF3 cells, EGFR L858R-T790-C797S, CellTiter-Glo, read-out: L858R-T790-C797S/BaF3 GI50): 4910 nM; GI50 ([2]; Mus musculus, BaF3, 72 h, BaF3 cells, EGFR L858R-T790M, CellTiter-Glo, read-out: L858R-T790M/BaF3 GI50): 1550 nM; GI50 ([2]; Mus musculus, BaF3, 72 h, EGFR DEL19-T790M, CellTiter-Glo, read-out: DEL19-T790M GI50): 2620 nM"
"Cc1cc2cc(n1)-c1cnn(C)c1OCCN1CC3CCC(C3)(C1)n1c(nc3ccc(N4CCC(N5CCOCC5)C4)cc31)NC2=O (single isomer, unassigned) [Example B44A]",–,–,–,–,–,–,–,–,"IC50 [3]: 4640 nM; IC50 [4]: > 5000 nM; IC50 [5]: > 5000 nM; IC50 [6]: > 5000 nM; GI50 ([1]; read-out: GI50 PC9): 1400 nM; IC50 [7]: > 5000 nM; GI50 ([2]; BaF3 cells, EGFR DEL19 - C797S, read-out: GI50 DEL19 - C797S/BaF3): 312 nM; GI50 ([2]; BaF3 cells, EGFR DEL19 - T790-C797S, read-out: GI50 DEL19 - T790-C797S/BaF3): 321 nM; GI50 ([2]; BaF3 cells, EGFR L858R - C797S, read-out: GI50 L858R - C797S/BaF3): 624 nM; GI50 ([2]; BaF3 cells, EGFR L858R - T790-C797S, read-out: GI50 L858R - T790-C797S/BaF3): 52 nM; GI50 ([2]; BaF3 cells, EGFR L858R - T790M, read-out: GI50 L858R - T790M/BaF3): 326 nM; GI50 ([2]; BaF3 cells, EGFR L858R, read-out: GI50 L858R/BaF3): 3000 nM; GI50 ([2]; EGFR DEL19 - T790M, read-out: GI50 DEL19 - T790M): 368 nM; IC50 [8]: > 5000 nM; IC50 [9]: > 5000 nM; IC50 [10]: > 5000 nM"
"CN(C)CC1(F)CN(c2ccc3nc4n(c3c2)C23CCC(CN(CCOc5c(cnn5C)-c5cc(cn(C)c5=O)C(=O)N4)C2)C3)C1 (single isomer, unassigned) [Example A72A]",1060 nM,351 nM,1060 nM,866 nM,632 nM,1820 nM,2770 nM,1230 nM,–

# The next lines start with results.
"GI50 [1, 11]","GI50 [2, 12]","GI50 [2, 13]","GI50 [2, 14]","GI50 [2, 15]","GI50 [2, 16]","GI50 [2, 17]","GI50 [2, 18]",SMILES,further results
295 nM,135 nM,587 nM,312 nM,193 nM,523 nM,450 nM,477 nM,"CN1CCN(C2CCN(c3ccc4nc5n(c4c3)C34CCC(CN(CCOc6c(cnn6C)-c6cc(cn(C)c6=O)C(=O)N5)C3)C4)C2)CC1 (single isomer, unassigned) [Example A80A, 15,21-Dimethyl-5-[3-(4-methylpiperazin-1-yl)pyrrolidin-1-yl]-23-oxa-2,9,11,15,20,21,26-heptaazaheptacyclo[24.4.1.1^{1,28}.1^{13,17}.0^{2,10}.0^{3,8}.0^{18,22}]tritriaconta-3,5,7,9,13,17(33),18(22),19-octaene-12,16-dione]",–
3.6 nM,0.5 nM,0.7 nM,0.63 nM,0.5 nM,0.73 nM,0.67 nM,0.7 nM,"CN1CCN(C2CCN(c3ccc4nc5n(c4c3)C34CCC(CN(CCOc6c(cnn6C)-c6cc(cn(C)c6=O)C(=O)N5)C3)C4)C2)CC1 (single isomer, unassigned) [Example A80B2, 15,21-Dimethyl-5-[3-(4-methylpiperazin-1-yl)pyrrolidin-1-yl]-23-oxa-2,9,11,15,20,21,26-heptaazaheptacyclo[24.4.1.1^{1,28}.1^{13,17}.0^{2,10}.0^{3,8}.0^{18,22}]tritriaconta-3,5,7,9,13,17(33),18(22),19-octaene-12,16-dione]",–
515 nM,94 nM,302 nM,550 nM,357 nM,184 nM,1100 nM,190 nM,"CN1CC2(CCN(c3ccc4nc5n(c4c3)C34CCC(CN(CCOc6c(cnn6C)-c6cc(cn(C)c6=O)C(=O)N5)C3)C4)C2)C1 (single isomer, unassigned) [Example A73A]",–
